Data as given in ChEMBL document CHEMBL1153217, “Antitubercular potential of some semisynthetic analogues of phytol” (Bioorg Med Chem Lett, 2010).
In brackets after ≈: the same amount, converted by molar mass. Activity calls are given as the source filed them. No cut-off for these calls is given here.

How the values were obtained:
[1] = test system: Mycobacterium tuberculosis; experiment: Antitubercular activity against Mycobacterium tuberculosis H37Rv at 500 ug/ml by BACTEC460 radiometric susceptibility assay; type: functional, organism-based
[2] = test system: Mycobacterium tuberculosis; experiment: Antitubercular activity against Mycobacterium tuberculosis H37Rv by BACTEC460 radiometric susceptibility assay; type: functional
Mus musculus [3] = experiment: Toxicity in Swiss albino mouse assessed as total SGPT level 300 mg/kg, po (reference value: 8.13 +/- 0.79U/L); type: organism-based; set-up: dose 300 mg/kg, route oral; conditions: in vivo
Mus musculus [4] = experiment: Toxicity in Swiss albino mouse assessed as total haemoglobin level 50 mg/kg, po (reference value: 7.54 +/- 1.05 g/dl); type: organism-based; set-up: dose 50 mg/kg, route oral; conditions: in vivo
Mus musculus [5] = experiment: Toxicity in Swiss albino mouse assessed as total SGPT level 5 mg/kg, po (reference value: 8.13 +/- 0.79 U/L); type: organism-based; set-up: dose 5 mg/kg, route oral; conditions: in vivo
Mus musculus [6] = experiment: Toxicity in Swiss albino mouse assessed as total WBC level 50 mg/kg, po (reference value: 10.71 +/- 2.47 thousand/mm'3); type: organism-based; set-up: dose 50 mg/kg, route oral; conditions: in vivo
Mus musculus [7] = experiment: Toxicity in Swiss albino mouse assessed as body weight at 50 mg/kg, po (reference value: 23.56+/-1.547 g); type: organism-based; set-up: dose 50 mg/kg, route oral; conditions: in vivo
Mus musculus [8] = experiment: Toxicity in Swiss albino mouse assessed as total haemoglobin level 300 mg/kg, po (reference value: 7.54 +/- 1.05 g/dl); type: organism-based; set-up: dose 300 mg/kg, route oral; conditions: in vivo
Mus musculus [9] = experiment: Toxicity in Swiss albino mouse assessed as total RBC count 300 mg/kg, po (reference value: 6.24 +/- 0.51 millions/mm'3); type: organism-based; set-up: dose 300 mg/kg, route oral; conditions: in vivo
Mus musculus [10] = experiment: Toxicity in Swiss albino mouse assessed as total WBC level 5 mg/kg, po (reference value: 10.71 +/- 2.47 thousand/mm'3); type: organism-based; set-up: dose 5 mg/kg, route oral; conditions: in vivo
Mus musculus [11] = experiment: Toxicity in Swiss albino mouse assessed as total serum creatinine level 50 mg/kg, po (reference value: 0.71 +/- 0.14 mg/dl); type: organism-based; set-up: dose 50 mg/kg, route oral; conditions: in vivo
Mus musculus [12] = experiment: Toxicity in Swiss albino mouse assessed as total WBC level 300 mg/kg, po (reference value: 10.71 +/- 2.47 thousand/mm'3); type: organism-based; set-up: dose 300 mg/kg, route oral; conditions: in vivo
Mus musculus [13] = experiment: Toxicity in Swiss albino mouse assessed as total serum creatinine level 300 mg/kg, po (reference value: 0.71 +/- 0.14 mg/dl); type: organism-based; set-up: dose 300 mg/kg, route oral; conditions: in vivo
Mus musculus [14] = experiment: Toxicity in Swiss albino mouse assessed as body weight at 5 mg/kg, po (reference value: 23.56+/-1.547 g); type: organism-based; set-up: dose 5 mg/kg, route oral; conditions: in vivo
Mus musculus [15] = experiment: Toxicity in Swiss albino mouse assessed as total SGOT level 50 mg/kg, po (reference value: 8.13 +/- 0.79 U/L); type: organism-based; set-up: dose 50 mg/kg, route oral; conditions: in vivo
Mus musculus [16] = experiment: Toxicity in Swiss albino mouse assessed as body weight at 300 mg/kg, po (reference value: 23.56+/-1.547 g); type: organism-based; set-up: dose 300 mg/kg, route oral; conditions: in vivo
Mus musculus [17] = experiment: Toxicity in Swiss albino mouse assessed as total serum triglyceride level 300 mg/kg, po (reference value: 72.43 +/- 8.40 mg/dl); type: organism-based; set-up: dose 300 mg/kg, route oral; conditions: in vivo
Mus musculus [18] = experiment: Toxicity in Swiss albino mouse assessed as total serum total cholesterol level 50 mg/kg, po (reference value: 43.25 +/- 4.04 mg/dl); type: organism-based; set-up: dose 50 mg/kg, route oral; conditions: in vivo
Mus musculus [19] = experiment: Toxicity in Swiss albino mouse assessed as total SGOT level 300 mg/kg, po (reference value: 8.13 +/- 0.79 U/L); type: organism-based; set-up: dose 300 mg/kg, route oral; conditions: in vivo
Mus musculus [20] = experiment: Toxicity in Swiss albino mouse assessed as total SGOT level 5 mg/kg, po (reference value: 8.13 +/- 0.79 U/L); type: organism-based; set-up: dose 5 mg/kg, route oral; conditions: in vivo
Mus musculus [21] = experiment: Toxicity in Swiss albino mouse assessed as total serum creatinine level 5 mg/kg, po (reference value: 0.71 +/- 0.14 mg/dl); type: organism-based; set-up: dose 5 mg/kg, route oral; conditions: in vivo
Mus musculus [22] = experiment: Toxicity in Swiss albino mouse assessed as total serum total cholesterol level 5 mg/kg, po (reference value: 43.25 +/- 4.04 mg/dl); type: organism-based; set-up: dose 5 mg/kg, route oral; conditions: in vivo
Mus musculus [23] = experiment: Toxicity in Swiss albino mouse assessed as total serum triglyceride level 5 mg/kg, po (reference value: 72.43 +/- 8.40 mg/dl); type: organism-based; set-up: dose 5 mg/kg, route oral; conditions: in vivo
Mus musculus [24] = experiment: Toxicity in Swiss albino mouse assessed as total haemoglobin level 5 mg/kg, po (reference value: 7.54 +/- 1.05 g/dl); type: organism-based; set-up: dose 5 mg/kg, route oral; conditions: in vivo
Mus musculus [25] = experiment: Toxicity in Swiss albino mouse assessed as total RBC count 50 mg/kg, po (reference value: 6.24 +/- 0.51 millions/mm'3); type: organism-based; set-up: dose 50 mg/kg, route oral; conditions: in vivo
Mus musculus [26] = experiment: Toxicity in Swiss albino mouse assessed as total RBC count 5 mg/kg, po (reference value: 6.24 +/- 0.51 millions/mm'3); type: organism-based; set-up: dose 5 mg/kg, route oral; conditions: in vivo
Mus musculus [27] = experiment: Toxicity in Swiss albino mouse assessed as total SGPT level 50 mg/kg, po (reference value: 8.13 +/- 0.79 U/L); type: organism-based; set-up: dose 50 mg/kg, route oral; conditions: in vivo
Mus musculus [28] = experiment: Toxicity in Swiss albino mouse assessed as total serum triglyceride level 50 mg/kg, po (reference value: 72.43 +/- 8.40 mg/dl); type: organism-based; set-up: dose 50 mg/kg, route oral; conditions: in vivo
Mus musculus [29] = experiment: Toxicity in Swiss albino mouse assessed as total serum total cholesterol level 300 mg/kg, po (reference value: 43.25 +/- 4.04 mg/dl); type: organism-based; set-up: dose 300 mg/kg, route oral; conditions: in vivo

CC(C)CCCC(C)CCCC(C)CCCC1(C)OC1CO (stereo unspecified)
MIC [1]: inactive

CO[C@H]1/C=C/O[C@@]2(C)Oc3c(C)c(O)c4c(O)c(c(/C=N/N5CCN(C)CC5)c(O)c4c3C2=O)NC(=O)/C(C)=C\C=C\[C@H](C)[C@H](O)[C@@H](C)[C@@H](O)[C@@H](C)[C@H](OC(C)=O)[C@@H]1C [RIFAMPIN]
MIC [2]: 2 µg/mL (≈ 2.43 µM)

C/C(=C\C=N\O)CCCC(C)CCCC(C)CCCC(C)C (stereo unspecified)
MIC [2]: 25 µg/mL (≈ 80.8 µM)

C/C(=C\CN=[N+]=[N-])CCCC(C)CCCC(C)CCCC(C)C (stereo unspecified)
MIC [1]: inactive

CC(=O)OC/C=C(\C)CCCC(C)CCCC(C)CCCC(C)C (stereo unspecified)
MIC [1]: inactive

C/C(=C\COC=O)CCCC(C)CCCC(C)CCCC(C)C (stereo unspecified)
MIC [2]: 500 µg/mL (≈ 1540 µM)

CCOC(=O)CO/N=C/C=C(\C)CCCC(C)CCCC(C)CCCC(C)C (stereo unspecified)
MIC [2]: 500 µg/mL (≈ 1260 µM)

CN[C@@H]1[C@H](O[C@H]2[C@H](O[C@H]3[C@H](O)[C@@H](O)[C@H](N=C(N)N)[C@@H](O)[C@@H]3N=C(N)N)O[C@@H](C)[C@]2(O)C=O)O[C@@H](CO)[C@H](O)[C@H]1O [STREPTOMYCIN]
MIC [2]: 2 µg/mL (≈ 3.44 µM)

CCOC(=O)/C=C/CO/N=C/C=C(\C)CCCC(C)CCCC(C)CCCC(C)C (stereo unspecified)
Activity (Mus musculus [3]): 11.36 U/L | Activity (Mus musculus [4]): 10.09 g/dL | Activity (Mus musculus [5]): 11.15 U/L | Activity (Mus musculus [6]): 13460 /mm3 | Activity (Mus musculus [7]): 25.39 g | Activity (Mus musculus [8]): 5.55 g/dL | Activity (Mus musculus [9]): 5140000 /mm3 | Activity (Mus musculus [10]): 14450 /mm3 | Activity (Mus musculus [11]): 0.59 mg/dL | Activity (Mus musculus [12]): 14240 /mm3 | Activity (Mus musculus [13]): 1.2 mg/dL | Activity (Mus musculus [14]): 25.41 g | Activity (Mus musculus [15]): 35.44 U/L | Activity (Mus musculus [16]): 20.56 g | Activity (Mus musculus [17]): 68.95 mg/dL | Activity (Mus musculus [18]): 54.91 mg/dL | Activity (Mus musculus [19]): 41.73 U/L | Activity (Mus musculus [20]): 28.03 U/L | Activity (Mus musculus [21]): 0.61 mg/dL | Activity (Mus musculus [22]): 57.67 mg/dL | Activity (Mus musculus [23]): 84.31 mg/dL | Activity (Mus musculus [24]): 6.41 g/dL | Activity (Mus musculus [25]): 6580000 /mm3 | Activity (Mus musculus [26]): 5980000 /mm3 | Activity (Mus musculus [27]): 10.06 U/L | Activity (Mus musculus [28]): 71.9 mg/dL | MIC [2]: 15.6 µg/mL (≈ 37 µM) | Activity (Mus musculus [29]): 62.27 mg/dL

COc1cc(/C=C/C(O)=C/C(=O)/C=C/c2ccc(OC/C=C(\C)CCCC(C)CCCC(C)CCCC(C)C)cc2)ccc1OC/C=C(\C)CCCC(C)CCCC(C)CCCC(C)C (stereo unspecified)
MIC [1]: inactive

C/C(=C\CO)CCCC(C)CCCC(C)CCCC(C)C (stereo unspecified)
MIC [2]: 100 µg/mL (≈ 337 µM)

C/C(=C\C=O)CCCC(C)CCCC(C)CCCC(C)C (stereo unspecified)
MIC [2]: 50 µg/mL (≈ 170 µM)

C/C(=C\COC/C=C(\C)CCCC(C)CCCC(C)CCCC(C)C)CCCC(C)CCCC(C)CCCC(C)C (stereo unspecified)
MIC [1]: inactive

C/C(=C\CBr)CCCC(C)CCCC(C)CCCC(C)C (stereo unspecified)
MIC [1]: inactive
